Assay results taken from patent publication US8436015B2, “Glucagon receptor antagonist compounds, compositions containing such compounds and methods of use” (Merck Sharp & Dohme Corp., priority 2008, dated 2013).

Biological target: T1, human glucagon receptor (Homo sapiens, UniProt P47871)
T1 construct: expressed in transfected cells; cell membranes used
Assay: Glucagon Receptor Binding Assay
Settings: more active isomer of indicated compounds; 125I-glucagon displacement, membranes of CHO cells expressing cloned human glucagon receptor
Description: A stable CHO (Chinese hamster ovary) cell line expressing cloned human glucagon receptor was maintained as described (Chicchi et al. J Biol Chem 272, 7765-9 (1997); Cascieri et al. J Biol Chem 274, 8694-7 (1999)). […] After 4-12 hours incubation at room temperature, the radioactivity bound to the cell membranes was determined in a radioactive emission detection counter (Wallac-Microbeta). Data was analyzed using the software program Prism from GraphPad. The IC50 values were calculated using non-linear regression analysis assuming single site competition.

T1 sequence (P47871 26-477): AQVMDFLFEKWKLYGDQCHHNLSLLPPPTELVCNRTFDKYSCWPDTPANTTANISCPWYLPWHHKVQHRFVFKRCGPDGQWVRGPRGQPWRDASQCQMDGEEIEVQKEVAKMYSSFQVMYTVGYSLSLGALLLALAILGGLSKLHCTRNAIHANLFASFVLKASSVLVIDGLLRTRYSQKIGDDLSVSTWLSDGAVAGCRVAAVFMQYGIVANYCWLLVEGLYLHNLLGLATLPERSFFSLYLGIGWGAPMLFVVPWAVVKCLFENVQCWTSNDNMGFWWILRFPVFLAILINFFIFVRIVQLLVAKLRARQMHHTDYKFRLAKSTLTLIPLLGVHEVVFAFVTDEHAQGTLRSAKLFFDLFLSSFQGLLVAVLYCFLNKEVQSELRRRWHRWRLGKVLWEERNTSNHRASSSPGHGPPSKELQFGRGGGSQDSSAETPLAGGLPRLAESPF

Row | SMILES | IC50 [nM]
1 | CCCC(c1ccc(C(=O)NCCC(=O)O)cc1)C(c1ccc(Cl)cc1)c1ccnc2c(Cl)cc(OC)cc12 (stereo not drawn) [Example 10] | 0.6
2 | CCCC(c1ccc(C(=O)NCCC(=O)O)cc1)C(c1ccc(Cl)cc1)c1cccc2nc(OC3CCC3)ccc12 (stereo not drawn) [Example 108] | 0.4
3 | CCCC(c1ccc(C(=O)NCCC(=O)O)cc1)C(c1ccc(Cl)cc1)c1ccnc2c(C)cc(OC(F)(F)F)cc12 (stereo not drawn) [Example 52] | 1.1
4 | CCC[C@H](c1ccc(C(=O)NCCC(=O)O)cc1)C(c1ccc(Cl)cc1)c1ccnc2cc(F)c(F)cc12 (single isomer, unassigned) [Example 157] | 0.3
5 | CCCC(c1ccc(C(=O)NCCC(=O)O)cc1)C(c1ccc(Cl)cc1)c1cccc2nc(OCCOC)ccc12 (stereo not drawn) [Example 112] | 0.9
6 | CCCC(c1ccc(C(=O)NCCC(=O)O)cc1)C(c1ccc(Cl)cc1)c1ccnc2cc(OC(F)(F)F)ccc12 (stereo not drawn) [Example 24] | 0.1
7 | CCCC(c1ccc(C(=O)NCCC(=O)O)cc1)C(c1ccc(Cl)cc1)c1ccnc2c(C)cc(F)cc12 (stereo not drawn) [Example 35] | 0.8
8 | CCCC(c1ccc(C(=O)NCCC(=O)O)cc1)C(c1ccc(OC(F)(F)F)cc1)c1cncc2cc(Cl)ccc12 (stereo not drawn) [Example 139] | 0.3
9 | CCCC(c1ccc(C(=O)NCCC(=O)O)cc1)C(c1ccc(Cl)c(Cl)c1)c1ccnc2c(C)cc(Cl)cc12 (stereo not drawn) [Example 84] | 0.3
10 | CCCC(c1ccc(C(=O)NCCC(=O)O)cc1)C(c1ccc(Cl)cc1)c1ccnc2cc(Cl)ccc12 (stereo not drawn) [Example 7] | 0.5
11 | CCC[C@H](c1ccc(C(=O)NCCC(=O)O)cc1)C(c1ccc(Cl)cc1)c1cccc2nc(-c3ccn[nH]3)ccc12 (stereo partly drawn) [Example 171, N-(4-{(1S)-1-[(4-Chlorophenyl)(2-(1H-Pyrazol-5-Yl)Quinolin-5-Yl)Methyl]Butyl}Benzoyl)-β-Alanine] | 18
12 | CCCC(c1ccc(C(=O)NCCC(=O)O)cc1)C(c1ccc(Cl)cc1)c1cc(C)nc2cc(Cl)ccc12 (stereo not drawn) [Example 37] | 0.4
13 | CCCC(c1ccc(C(=O)NCCC(=O)O)cc1)C(c1ccc(Cl)cc1)c1ccc2nc(OC)ccc2c1 (stereo not drawn) [Example 120] | 1.8
14 | CCC[C@H](c1ccc(C(=O)NCCC(=O)O)cc1)C(c1ccc(Cl)cc1)c1cnc2cc(C(F)(F)F)ccc2c1 (single isomer, unassigned) [Example 3] | 5
15 | CCCC(c1ccc(C(=O)NCCC(=O)O)cc1)C(c1ccc(Cl)cc1)c1nc(CC)c2cc(OC)ccc2n1 (single isomer, unassigned) [Example 174, N-(4-{1-[(4-Chlorophenyl)(4-Ethyl-6-Methoxyquinazolin-2-Yl)Methyl]Butyl}Benzoyl)-β-Alanine] | 1.7
16 | O=C(O)CCNC(=O)c1ccc(C(CCC(F)(F)F)C(c2ccc(Cl)cc2)c2cncc3cc(Cl)ccc23)cc1 (stereo not drawn) [Example 138] | 0.4
17 | CCC[C@H](c1ccc(C(=O)NCCC(=O)O)cc1)C(c1ccc(Cl)cc1)c1ccnc2c(C)cc(Cl)cc12 (single isomer, unassigned) [Example 1] | 1
18 | CCCC(c1ccc(C(=O)NCCC(=O)O)cc1)C(c1ccc(Cl)cc1)c1ccnc2c(F)c(C)c(F)cc12 (stereo not drawn) [Example 72] | 0.2
19 | CCCC(c1ccc(C(=O)NCCC(=O)O)cc1)C(c1ccc(OC(F)(F)F)cc1)c1ccnc2cc(F)ccc12 (stereo not drawn) [Example 62] | 0.2
20 | CCCC(c1ccc(C(=O)NCCC(=O)O)cc1)C(c1ccc(Cl)cc1)c1cncc2c(Cl)cccc12 (stereo not drawn) [Example 131] | 0.5
21 | CCC[C@H](c1ccc(C(=O)NCCC(=O)O)cc1)C(c1ccc(Cl)cc1)c1ncnc2c(F)cc(C)cc12 (single isomer, unassigned) [Example 173] | 1.4
22 | CCCC(c1ccc(C(=O)NCCC(=O)O)cc1)C(c1ccc(Cl)cc1)c1cccc2ccc(OC)nc12 (stereo not drawn) [Example 146] | 12
23 | CCCC(c1ccc(C(=O)NCCC(=O)O)cc1)C(c1cccc(Cl)c1)c1ccnc2cc(F)c(F)cc12 (stereo not drawn) [Example 159] | 0.6
24 | CCCC(c1ccc(C(=O)NCCC(=O)O)cc1)C(c1ccc(Cl)cc1)c1cc(C)nc2ccc(Cl)cc12 (stereo not drawn) [Example 23] | 1.4
25 | CCC[C@H](c1ccc(C(=O)NCCC(=O)O)cc1)C(c1ccc(Cl)cc1)c1cccc2nc(OC)ccc12 (single isomer, unassigned) [Example 2] | 0.5
26 | CCCC(c1ccc(C(=O)NCCC(=O)O)cc1)C(c1ccc(Cl)cc1)c1ccnc2cc(C)c(Cl)cc12 (stereo not drawn) [Example 50] | 0.5
27 | CCC(c1ccc(C(=O)NCCC(=O)O)cc1)C(c1ccc(OC(F)(F)F)cc1)c1cccc2nc(OC)ccc12 (stereo not drawn) [Example 115] | 0.3
28 | O=C(O)CCNC(=O)c1ccc(C(CCC(F)(F)F)C(c2ccc(Cl)cc2)c2ccnc3cc(Cl)ccc23)cc1 (stereo not drawn) [Example 55] | 0.2
29 | Cc1cc2nccc(C(c3ccc(Cl)cc3)C(CCC(F)(F)F)c3ccc(C(=O)NCCC(=O)O)cc3)c2cc1F (stereo not drawn) [Example 77] | 0.2
30 | CCCC(c1ccc(C(=O)NCCC(=O)O)cc1)C(c1ccc(Cl)cc1)c1nc(C2CCCCC2)c2ccc(C(F)(F)F)cc2n1 (stereo not drawn) [Example 179] | 4.5
